Columns and labels:
[1] = system: form-deprivation myopia; assay: Form-deprivation myopia model (FDM) in guinea pigs: interocular differences in refraction and eye axis parameters; conditions: for Difference in Refraction (Refraction, D) Mean / Difference in Axial Length (AL, mm) Mean / Difference in Vitreous Chamber Depth (VCD, mm) Mean: FD + 0.94% lipoic acid, experimental eye vs contralateral eye; for Difference in Refraction (Refraction, D) Mean: periocular subconjunctival injection 100 µL once daily; for Difference in Axial Length (AL, mm) Mean / Difference in Vitreous Chamber Depth (VCD, mm) Mean: subconjunctival injection once daily; for myopia inhibition rate: 0.94% lipoic acid compared to the vehicle control group
Description: Form-deprivation and lens-induced myopia models in guinea pigs are classic and recognized myopic animal models in the art, and may be used for evaluating efficacy and safety of myopia treatment drugs, and methods for establishing such models are well-known to those skilled in the art. For animal modeling and administration routes in the present application, reference is made to previously published scientific documents by the research group (Sen Zhang, Invest Ophthalmol Vis Sci. 2019 Jul 1; 60(8):3074-3083.; Miaozhen Pan, Exp Eye Res. 2021 Jan; 202:108332.).
After individuals with significant eye diseases or abnormalities were eliminated from three-week-old tricolor guinea pigs, by detecting refraction (using an infrared eccentric photorefraction device) and the eye axis (using A-scan ultrasonography), animals with refractive power between 3 and 8 diopters (D), an interocular difference in refraction not exceeding 2 D, and interocular differences in vitreous chamber depth and axial length not exceeding 0.05 mm were selected. These animals were randomly divided into two groups: an FD + vehicle control group (1% DMSO + 49% PEG300 + 50% normal saline, by volume) and an FD + 0.94% lipoic acid drug treatment group. At 8:00 AM on day 1 of the experiment, form deprivation was induced in the guinea pigs using a mask method, where the right eye (experimental eye) was occluded and the left eye was left unoccluded (contralateral eye). The FD induction was maintained throughout the entire period of the lipoic acid efficacy experiment, with the hoods only briefly removed for drug administration or ocular examination (for example, refraction detection). Starting on the first day of the efficacy experiment, position of the hood was checked daily at 8:00 AM, 12:00 PM, and 7:00 PM, as well as prior to administration. Individuals with hoods fell off more than three times during the administration period were excluded. Beginning on the day of modeling, the corresponding vehicle or drug (lipoic acid formulation) was administrated to the experimental eye daily between 9:00 AM and 10:00 AM via periocular subconjunctival injection at an injection volume of 100 µL. The vehicle or drug was administrated once daily for two consecutive weeks. Interocular refraction and eye axis parameters of all subjects were measured at the start of the efficacy experiment, 1 week after administration, and after the final administration. All data collection and processing methods were the same as those previously published by the laboratory of the inventors (Pan M, Zhao F, Xie B, et al. Dietary omega-3 polyunsaturated fatty acids are protective for myopia. Proc Natl Acad Sci U S A 2021 Oct 26; 118(43):e2104689118). Statistical basis was the difference between the experimental eye and the contralateral eye in the same subject.
Utilizing the same efficacy evaluation system for myopia treatment in the guinea pig form-deprivation model as described in Example 2, the prevention and control effects of mexidol, pyridoxol, astaxanthin, and blueberry fruit extract on myopia were compared against lipoic acid. The administration route was periocular subconjunctival injection.
The same efficacy evaluation system for myopia treatment in the guinea pig form-deprivation model as described in Example 2 was utilized to evaluate the myopia treatment effects of blueberry fruit extract + lipoic acid compound formulations at different prescription ratios. The administration route was periocular subconjunctival injection.

[2] = system: form-deprivation myopia; assay: Choroidal thickness (OCT) in the guinea pig form-deprivation model; assay type: in vivo, guinea pigs; conditions: animals of Example 2 (0.94% lipoic acid), 30 to 60 minutes after the final administration
Description: Choroidal thickness of all animal subjects in Example 2 were detected using Spectralis HRA + OCT (Heidelberg Engineering, Heidelberg, Germany) for 30 minutes to 60 minutes after the final administration (of either the vehicle or lipoic acid).
After completion of the experiment, the choroidal thickness was detected in animals in the two control groups and the 0.5% lipoic acid choline ester eye drop administration group in Example 6 (some animals died during the measurement due to reasons unrelated to the test drugs, so the corresponding samples were eliminated).

[3] = system: age-related macular degeneration; conditions: oral administration; Kim et al. 2020; cited from earlier work

O=C(O)CCCCC1CCSS1 (stereo not drawn) [Lipoic acid, alpha-lipoic acid]
Difference in Refraction (Refraction, D) Mean ([1]; 1 Week): -2.2 D
Difference in Axial Length (AL, mm) Mean ([1]; 1 Week): 0.04364 mm
Difference in Vitreous Chamber Depth (VCD, mm) Mean ([1]; 1 Week): 0.0009091 mm
Difference in Axial Length (AL, mm) Mean ([1]; 1 Week, listed as lipoic acid): 0.04364 + 0.03295 mm
Difference in Vitreous Chamber Depth (VCD, mm) Mean ([1]; 1 Week, listed as lipoic acid): 0.0009091 + 0.027 mm
Difference in Refraction (Refraction, D) Mean ([1]; 2 Weeks): -4.673 D
Difference in Axial Length (AL, mm) Mean ([1]; 2 Weeks): 0.06364 mm
Difference in Vitreous Chamber Depth (VCD, mm) Mean ([1]; 2 Weeks): 0.08545 mm
Difference in Axial Length (AL, mm) Mean ([1]; 2 Weeks, listed as lipoic acid): 0.06364 ± 0.03722 mm
Difference in Vitreous Chamber Depth (VCD, mm) Mean ([1]; 2 Weeks, listed as lipoic acid): 0.08545 + 0.02067 mm
Difference in Refraction (Refraction, D) Mean ([1]; Baseline): -0.04545 D
Difference in Axial Length (AL, mm) Mean ([1]; Baseline): -0.004545 mm
Difference in Vitreous Chamber Depth (VCD, mm) Mean ([1]; Baseline): 0.09273 mm
axial elongation and increase in vitreous chamber depth, FIG. 5 ([1]; Example 4, 0.3% R-alpha lipoic acid, subconjunctival injection, 1 and 2 weeks): could effectively inhibit the axial elongation and the increase in vitreous chamber depth
refraction (interocular difference), FIG. 4 ([1]; Example 4, week 1 detection, 0.3% R-alpha lipoic acid (R-LA), periocular subconjunctival injection, compared with the other test drugs): optimal myopia treatment effect
anterior chamber depth, lens thickness, corneal curvature ([1]; guinea pig, in vivo): unaffected by the drug
mydriatic effect (pupil diameter) ([1]; guinea pig, in vivo): No mydriatic effect was observed
toxic reactions, ocular irritations, significant ocular abnormalities ([1]; guinea pig, in vivo): no any toxic reactions, ocular irritations, or significant ocular abnormalities were observed
myopia inhibition rate ([1]; week 1 of treatment): 42.4%
myopia inhibition rate ([1]; week 2 of treatment): 21.1%
choroidal thickness, experimental eye vs contralateral eye [2]: could significantly inhibit the decrease in choroidal thickness in myopic eyes
efficacy, clinical endpoint [3]: did not reach a clinical endpoint
